Several values for one entry are separate records, joined by “and”; a condition that tells them apart may be missing. Equal entries are not always repeated. Entries after “also recorded” stand apart in the source; their conditions may differ. Where two headings read alike, the source gives them in different places. Each block holds one compound with its values, some of them ahead of it. Where a SMILES comes first, the peptide text is derived from it. The star is where a group is joined. Biotin = O=C1N[C@H]2[C@H](CS[C@H]2CCCCC(=O)*)N1
Experiments:
[1] = Filtration test (0.2 μm filter); type: physicochemical; details: for effect on the presence of fibrils in NFL-TBS40-63 formulation: amino acid added instead of alanine
Experimental: Several formulations (containing NFL-TBS40-63 and various buffers, solubilizing and osmolarity adjusting agents) were tested for their aptitude to pass a 0.2 μm filter. […] The ease of filtration (manual pressure required) was recorded.
For grade 1 formulations, further filtration tests were performed with higher volumes of the test formulation, and a deliberately small filter area size, e.g. a 25 mm diameter with pores of 0.2 μm with 100 ml of the test formulation.

[2] = Scanning Electron Microscopy (SEM) of dry powder; type: physicochemical; details: Lot AW18189D and Lot HF44004B
Experimental: Scanning Electron Microscopy of NFL-TBS40-63 peptide dry powder was performed using an Jeol 6301F instrument. In brief, NFL-TBS40-63 peptide was lightly sprinkled onto double sided tape fixed to a SEM stub. Excess powder was shaken/tapped off, so as to leave a very thin layer of powder on the stub, which was then sputter coated with an ~10 nm layer of platinum, prior to observation. This technique allows visualization of the fibrils in the dry NFL-TBS40-63 peptide powder.

[3] = Transmission Electron Microscopy (TEM) of fibrils; type: physicochemical
Experimental: Transmission Electron Microscopy imaging of various formulations was performed using a Jeol JEM-1400 instrument. Sample preparation was as follows: one drop of the liquid to be examined was deposited onto a TEM gird and allowed to settle for ~1 minute. Excess liquid was then absorbed with blotting paper, and one drop of a 2% solution of uranyl acetate was deposited on the grid. After ~2 minutes the excess solution was absorbed with blotting paper, and the grid was rinsed twice, using with a drop of water each time. The grid was then dried, prior to examination in the TEM. This technique allowed visualization of the fibrils of NFL-TBS40-63 peptide in the various formulations and in water.

[4] = test system: U-87 MG cells implanted in the brains of BALB/c Nude mice; test: In vivo U-87 MG brain tumor in nude mice, tolerance and MALDI-TOF imaging; details: intravenous injection in the formulation of the invention, 1 hour after the final injection
Experimental: Seven-week-old female Balb/c nude mice (Janvier, France) were housed at the university animal facility (Service Commun d'Animalerie Hospitalo-Universitaire—Université d'Angers, France). Animals had free access to water and food throughout the experiment and their behavior and body weight were constantly monitored. All procedures involving animals, were conducted in accordance with protocols approved by ethical committee of the University of Angers and the regional ethics committee on animal experimentations.
Mice were anesthetized by intraperitoneal injection of a mixture of ketamine 10% (80 mg/kg) and xylazine 2% (10 mg/kg). […] The injection coordinates were 2.1 mm lateral, 0.5 mm posterior from the bregma and 2.5 mm deep from the outer border of the cranium. […] Animals were sacrificed 1 hour after the last injection, and brains were removed and frozen in nitrogen vapors.
The MALDI-TOF MS analysis was performed on a Bruker BIFLEX III mass spectrometer (Bruker Daltonics; Germany) equipped with a nitrogen laser (337 nm wavelength, 3 ns laser pulse duration) with reflection and in the positive ion mode. The MS data were acquired over a mass range of m/z 2714 Da with pixels of 100 μm diameter but the capturing area is of 40 μm per pixel. Data have been normalized by Root Mean Square and the image has been smoothed by reducing background noise. […]

[5] = Clarity test - degree of opalescence; type: physicochemical
Experimental: For preparations where the NFL-TBS40-63 peptide appeared to be visually dissolved (following the visual dissolution test), the clarity (opalescence) of the preparation was assessed, via visual inspection after placing the colourless glass tube close to a white light source. The degree of opalescence was a very useful predictor of a given preparation's ability to pass or block a sterilizing filter.

[6] = test system: U-87 MG human GBM cells; test: Immunocytochemistry of tubulin; type: cell-based; details: 100 μM, 48 hours
Experimental: (§1) To visualize the treatment internalization, 20,000 and 35,000 cells per well for b.End3 murine endothelial cells and U-87 MG human GBM cells, respectively, were seeded in 24-well plates containing one coverslip previously coated with poly (d) lysine 0.1 mg/ml per well and washed three times with 1×DPBS (Sigma-Aldrich; Saint-Louis, USA) and incubated for 24 hours at 37° C. and 5% CO2. Then, the cells were incubated with 100 μM of GC01-G5% (NFL-TBS40-63 peptide (GC01) peptide partially solubilized with 5% glucose) or 100 μM of GC01.1 (NFL-TBS40-63 peptide (GC01) fully solubilized in the formulation of the invention F28C1), or with 1 μg/mL of colchicine for 48 hours at 37° C. At the end of the incubation time, cells were washed three times with 1×DPBS and fixed with 4% paraformaldehyde (15714-Delta microscopies; Mauressac, France) for 10 min at room temperature. Then, treated cells were permeabilized with 0.2% triton X-100 (T9284—Sigma-Aldrich; Saint-Louis, USA) for 10 min, and blocked with 5% bovine serum albumin (A7030—Sigma-Aldrich; Saint-Louis, USA) for 45 min at room temperature. Cells were co-incubated with a mouse anti-a tubulin (ab7750-Abcam; Paris, France) and a rabbit anti-βIII tubulin antibodies at 1:250 (T2200—Sigma-Aldrich; Saint-Louis, USA) overnight at 4° C. […]

[7] = test system: b.End3 murine endothelial cells; test: Immunocytochemistry of tubulin; type: cell-based; details: 100 μM, 48 hours
Experimental: as §1

[8] = test system: U-87 MG cells; test: Calcein/PI flow cytometry after passage through the endothelial monolayer; type: cell-based, human; details: Transwell conditions + U-87 MG cells, 24 h treatment + 48 hours
Experimental: After 24 hours of treatment, the endothelial cell monolayer was removed, and the U-87 MG cells were incubated at 37° C. for an additional 48 hours. At this time, U-87 MG cells were collected as previously described in section 1.4. To evaluate cell viability were stained with 1 μM of Calcein green (Thermo Fisher Scientific; Massachusetts, USA) for 30 min at room temperature in the dark. Then re-suspended in Propidium Iodide and analyzed by flow cytometry. 10,000 cells were measured for each experiment.

[9] = test system: neuroblastoma and glioblastoma cell lines; details: WO 2011/073207 and Bocquet et al. (2009); cited from earlier work
[10] = Visual dissolution test / solubility of the peptide; type: physicochemical
[11] = test system: U-87 MG human GBM cells; test: MTS viability assay (mitochondrial activity); type: cell-based; details: 72 hours, peptide in Clinic vehicle F28C1 compared with Glucose 5%
Experimental: (§2) Cells were seeded in 96-well plates at 1,000 per well for b.End3 murine endothelial cells and F98 rat GBM cells, and 5,000 cells and U-87 MG human GBM cells, and incubated for 24 hours at 37° C. and 5% CO2. Then, the culture media was removed and cells were treated for 72 hours at 37° C. and 5% CO2 with increasing concentrations (25, 50, 100 and 200 μM) of GC01-G5% (NFL-TBS40-63 peptide (GC01) partially solubilized with 5% glucose) or GC01.1 (NFL-TBS40-63 peptide (GC01) fully solubilized in the formulation of the invention F28C1), or with 1 μg/mL of colchicine, or the 5% glucose solution and the Clinic vehicle, diluted in fresh media. Cell viability was measured using the MTS viability assay (ab197010-Abcam; Paris, France). After rinsing the cells with 1×DPBS (Dulbecco's Phosphate Buffered Saline-Gibco; Dardilly, France), 20 μL of MTS reagent was added to each well for 2 hours. The number of living cells is directly proportional to the absorbance measured by the amount of light absorbance at 490 nm in a SpectraMax M2 multi-scanning spectrophotometer (Molecular Devices; San Jose, California, USA).

[12] = test system: b.End3 murine endothelial cells; test: MTS viability assay (mitochondrial activity); type: cell-based; details: 72 hours, peptide in Clinic vehicle F28C1 compared with Glucose 5%
Experimental: as §2

[13] = Dynamic Light Scattering (DLS); type: physicochemical
Experimental: FIG. 4A-C: DLS graphs showing the effect of the heating of the formulation containing L-alanine at different temperatures before adding NFL-TBS40-63 peptide followed by mixing for 1 h30 at A. room temperature (RT); B. 30-35° C., and C. 40-45° C. […] Low attenuator values (e.g. ≤8) indicate that there were substantially more particles in the sample.
Dynamic Light Scattering (DLS) measurements were performed on the several formulations of grade 1 and 2 using a Malvern Nano-S instrument. Although the technique is not quantitative, it provided important information on the relative size of the objects (fibrils) present in the various formulations, throughout out the process of dissolution.
The attenuator value also gives a measure of the quantity of particles present: the higher the attenuator value, the less particles present.

SMILES: NC(=O)CC[C@H](N)C(=O)O [L-glutamine]
- effect on the presence of fibrils in NFL-TBS40-63 formulation [1]: did not have any positive effect

SMILES: CC(C)C[C@H](N)C(=O)O [L-leucine]
- effect on the presence of fibrils in NFL-TBS40-63 formulation [1]: did not have any positive effect

SMILES: CC[C@H](C)[C@H](N)C(=O)O [L-isoleucine]
- effect on the presence of fibrils in NFL-TBS40-63 formulation [1]: did not have any positive effect

The next lines start with results.

- effect on the presence of fibrils in NFL-TBS40-63 formulation [1]: did not have any positive effect
SMILES: CSCC[C@H](N)C(=O)O [L-methionine]

- effect on the presence of fibrils in NFL-TBS40-63 formulation [1]: did not have any positive effect
SMILES: CC(C)[C@H](N)C(=O)O [L-valine]

- structures in dry powder by SEM [2]: fibril-like structures
- length of sub-visible fibrillar structures ([3]; self-association): ≤ 2 μm
- opalescence of the solution ([5]; F28C1 with 25 mM L-alanine, 1.5 mg/mL peptide): slightly opalescent
- opalescence of the solution ([5]; F28C1 with 50 mM L-alanine, 1.5 mg/ml peptide): very slightly opalescent
- opalescence of the solution ([5]; F28C1 with 112 mM L-alanine, 1.5 mg/ml peptide): slightly opalescent
- opalescence of the solution ([5]; F28C1 with 225 mM L-alanine, 1.5 mg/ml peptide): slightly opalescent
- opalescence of the solution ([5]; F28C1 with 670 mM L-alanine, 0.5 mg/mL peptide): slightly opalescent
- passage of 0.2 μm sterilizing filter ([1]; 1 mg/ml in water): very quickly block
- behaviour of pre-filter and sterilizing filters ([1]; 3 mg/ml in G5% (5% glucose in water for injection)): tended to clog up quite quickly
- filter grade ([1]; F28C1 with 25 mM L-alanine, 1.5 mg/mL peptide, 1 mL, 13 mm 0.2 μm filter): 2
- filter grade ([1]; F28C1 with 50 mM L-alanine, 1.5 mg/ml peptide, 5 mL, 13 mm 0.2 μm filter): 1 to 2
- filter grade ([1]; F28C1 with 112 mM L-alanine, 1.5 mg/ml peptide, 1 mL, 13 mm 0.2 μm filter): 2
- filter grade ([1]; F28C1 with 225 mM L-alanine, 1.5 mg/ml peptide, 1 mL, 13 mm 0.2 μm filter): 2 to 3 and 3
- filter grade ([1]; F28C1 with 670 mM L-alanine, 0.5 mg/mL peptide, 13 mm 0.2 μm filter): 3
- sterilizing filtration through 0.2 μm ([1]; micronized powder in F28C1, after 0.45 μm pre-filtration): successful
- filter grade ([1]; with no alanine): 3
- dissolution of the peptide ([10]; 3 mg/ml in G5% (5% glucose in water for injection), even after heating 1.5 h at 40 to 45° C.): less well dissolved
- solubility at 2 min ([10]; 50 mM glutamine and 50 mM arginine, read-out: solubility): < 800 µg/mL
- precipitation ([10]; in the presence of sodium or potassium ions): tends to irreversibly precipitate
- solubility at 2 min ([10]; in water, read-out: intrinsic aqueous solubility): < 2500 µg/mL
- solubility in commonly used parenteral buffer systems ([10]; nearly all commonly used parenteral buffer systems): insoluble
- DLS single peak, particle size ([13]; micronized powder in F28C1, 1.5 hours mixing at ambient temperature (20° C.), prior to pre-filtration): around 300 nm
- DLS attenuator value ([13]; solution F28C heated to 40-45° C. before adding the peptide, mixing 1h30): 10
SMILES: CC(C)C[C@H](NC(=O)[C@H](CO)NC(=O)[C@H](CO)NC(=O)[C@H](CO)NC(=O)[C@@H](NC(=O)[C@@H]1CCCN1C(=O)[C@H](C)NC(=O)[C@H](CO)NC(=O)[C@H](Cc1ccc(O)cc1)NC(=O)[C@H](CO)NC(=O)[C@H](CO)NC(=O)[C@H](Cc1ccc(O)cc1)NC(=O)CCCC[C@@H]1SC[C@@H]2NC(=O)N[C@@H]21)C(C)C)C(=O)N[C@@H](CO)C(=O)N[C@H](C(=O)N[C@@H](CCCNC(=N)N)C(=O)N[C@@H](CCCNC(=N)N)C(=O)N[C@@H](CO)C(=O)N[C@@H](Cc1ccc(O)cc1)C(=O)N[C@@H](CO)C(=O)N[C@@H](CO)C(=O)N[C@@H](CO)C(=O)N[C@@H](CO)C(=O)NCC(=O)N[C@@H](CO)C(N)=O)C(C)C [NFL-TBS40-63 peptide] (Biotin-YSSYSAPVSSSLSVRRSYSSSSGS-NH2; N-terminus and C-terminus assumed)
- number and size of fibrils by TEM ([3]; composition containing 50 mM of L-alanine and 1 mg/mL peptide): significantly reduced; also recorded: virtually no fibrils were visible
- fibrillar structures by TEM ([3]; in water, 1 mg/mL and 0.27 mg/ml): fibrillar structure; also recorded: fibril structure
- peptide in the tumor by MALDI-TOF imaging [4]: accumulation
- effect on tubulin (immunostaining) [6]: alteration of tubulin
- effect on tubulin (immunostaining) [7]: alteration of tubulin
- percentage of dead cells ([8]; listed as Biot-NFL): 16.6±5.4%
- percentage of dead cells ([8]; listed as GC01): 30.1±7.9%
- inhibition of proliferation in vitro [9]: able to inhibit the proliferation
- cytotoxicity profile (cell viability, MTS) [11]: retains its properties
- cytotoxicity profile (cell viability, MTS) [12]: retains its properties

From patent US20260240768A1, “PHARMACEUTICAL COMPOSITION COMPRISING NFL-TBS40-63 PEPTIDE, VARIANTS OR SALTS THEREOF AND ALANINE” (GLIOCURE, priority 2022, published 2026)
